Laboratory results taken from paper PMC10380488, “Cx43 Hemichannel and Panx1 Channel Modulation by Gap19 and ^10Panx1 Peptides” (International Journal of Molecular Sciences, 2023).
Several values for one entry are separate records, joined by “and”; a condition that tells them apart may be missing. Identical values can stand only once. Entries after “also recorded” stand apart in the source; their conditions may differ.

How the values were obtained:
Panx1 channel = conditions: some evidence; cited from earlier work
Excerpt: The representative traces depicted in Figure 1A (enlarged display in Supplementary Figure S1) show unitary Panx1 current activities evoked by repeated (every 40 s) Vm steps from a holding potential of −30 mV to +70 mV (with a duration of 30 s) in voltage-clamp experiments (using whole-cell patch-clamp recording). Under control conditions, a single channel conductance of ~65 pS was observed as determined from the channel transition histograms shown in Figure 1B, i.e., below the 100 pS range, which is typical for voltage-dependent Panx1 channel-opening activity. We tested the effec ...

Cx46 HC = conditions: cited from earlier work
Excerpt: (§1) Connexins and pannexins are two ubiquitous but distinct protein families forming membrane hemichannels (HCs) and channels in the plasma membrane, respectively. They facilitate the exchange of ions and small molecules (MW ≤ 1.5 kDa) between the intracellular and the extracellular compartment upon opening. Among these respective families, connexin-43 (Cx43) and pannexin-1 (Panx1) are the most abundant isotypes in the human body expressed in a wide array of tissues. Panx1 and Cx43 have several common properties, including the following: (i) an analogous tetra-spanning transmembrane topology with ...

Cx43 or Panx1 channels = conditions: 100 μM extracellular; HeLa cells expressing Cx43 or Panx1; cited from earlier work
Excerpt: as §1

Panx1 channels [1] = target: T1, Panx1 channels (Rattus norvegicus, UniProt P60570); conditions: 200 µM extracellular; high extracellular K^+; cited from earlier work
T1 construct: expressed in transfected cells; host or cells: C6 glioma cells (C6-Panx1), gift of Dr Christian C; Naus
Excerpt: as §1

Panx1 channels [2] = target: T1, Panx1 channels; experiment: Whole-cell patch-clamp, unitary Panx1 channel current activity in C6-Panx1 cells; format: cell-based; conditions: for nominal open probability (NPo) of Panx1 channels: preincubated 45 min, C6-Panx1, step −30 to +70 mV, 30 s, mean ± SEM, control 0.37 ± 0.02; for reduction of NPo of Panx1 channels: vs control
Excerpt: (§2) We used HeLa cells stably transfected with Cx43 (HeLa-Cx43 [56]); endogenous expression of Panx1 is very low or absent in non-transfected HeLa cells. C6 glioma cells stably transfected with Panx1 (C6-Panx1, C-terminally myc-tagged; kind gift of Dr Christian C. Naus, University of British Columbia, Canada) were used for the Panx1 channel studies; Cx43 expression is low or undetectable [61] in these cells. HeLa cells were maintained in Dulbecco’s modified Eagle’s medium (DMEM; Invitrogen, Gent, Belgium), and C6 cells were grown in DMEM:Ham’s F12 (1:1—Invitrogen, Merelbeke, Belgium), all supplemented with 10% fetal bovine serum (FBS), 2 mM glutamine, 10 U/mL penicillin, 10 µg/mL streptomycin and 0.25 µg/mL fungizone. Stable exogenous expressions were maintained by supplementation of 1 and 3 µg/mL puromycin (Sigma-Aldrich, Bornem, Belgium) for HeLa-Cx43 and C6-Panx1 cells, respectively. Stable transfectants were subcultured into puromycin-free medium 2 days prior to experimentation. Cells were maintained at 37 °C and 10% (HeLa-Cx43) or 5% (C6-Panx1) CO2.
(§3) All experimental data were obtained with the patch-clamp technique in whole-cell recording mode on HeLa-Cx43 and C6-Panx1 cells. Extracellular solution was composed of the following (in mM): 150 NaCl, 4 CsCl, 2 CaCl2, 2 MgCl2, 2 pyruvic acid, 5 glucose and 5 HEPES at pH of 7.4, while the pipette solution consisted of the following (in mM): 125 CsCl, 10 sodium aspartate (NaAsp), 0.26 CaCl2, 1 MgCl2, 2 EGTA, 10 tetraethylammonium (TEA)-Cl and 5 HEPES at pH 7.2. The free Ca^2+ concentration of the pipette solution was estimated to be ~50 nM as calculated with WEBMAX (https://somapp.ucdmc.ucdavis.edu/pharmacology/bers/maxchelator/webmaxc/webmaxcS.htm; accessed on 20 September 2020). Whole-cell recording was performed under control conditions and in the presence of Gap19 or ^10Panx1. Gap19 was included in the pipette solution, while ^10Panx1 was added externally and preincubated for 45 min. Recordings were commenced 2 min after establishment of the whole-cell configuration. Currents were recorded with an EPC 7 PLUS patch-clamp amplifier (HEKA Elektronik, Germany). Unitary current activities were elicited by stepping the cells from a holding potential of −30 mV to a membrane potential (Vm) of +70 mV for 30 s. Data were digitized at 4 KHz using an NI USB-6221 data acquisition device (National Instruments, Austin, TX, USA) and WinWCP acquisition software designed by Dr. J. Dempster (University of Strathclyde, United Kingdom). Measured currents were filtered by a 7-pole Bessel low-pass filter at 1 KHz cut-off frequency. Transition analysis was performed as reported in [16]. Unitary channel conductances were determined from transition histograms as well as from all-point histograms and were obtained by fitting their frequencies to Gaussian distributions. Channel opening activity is expressed as nominal open probability NPo, denoting the number of active channels in the patch multiplied by the open probability.
(§4) Data were processed using Clampfit version 11.2 (Molecular Devices, San Jose, USA) and HemiGUI software as previously described. Results are expressed as mean ± SEM (unless otherwise stated), with n giving the number of traces, N the number of cells, and N the number of experiments on different cell culture dishes. Multiple groups were compared by one-way analysis of variance with post-hoc Dunnett’s or Bonferroni multiple comparison tests, making use of GraphPad PRISM 5.0 (GraphPad Software, Inc., La Jolla, CA). Results were considered statistically significant when p ≤ 0.05 (*; # for p ≤ 0.05, **; ## for p ≤ 0.01, ***; ### for p ≤ 0.001, and ****; #### for p ≤ 0.0001).

Cx43 HCs = experiment: Whole-cell patch-clamp, unitary Cx43 hemichannel current activity in HeLa-Cx43 cells; format: cell-based; conditions: for nominal open probability (NPo) of Cx43 HCs: preincubated 45 min, HeLa-Cx43, step −30 to +70 mV, 30 s, mean ± SEM, control 0.48 ± 0.02; for reduction of NPo of Cx43 HCs: vs control; for conductance γ of Cx43 HC, subconductance state, transition histogram / unitary conductance γ of Cx43 HC, fully open state, transition histogram: Figure 3B, mean ± SD
Excerpt: as §2, §3, §4

[3] = 100 μM ^10Panx1 extracellular, N = 12, n = 88
[4] = 200 μM ^10Panx1 extracellular, N = 11, n = 97

T1 sequence (P60570 whole entry): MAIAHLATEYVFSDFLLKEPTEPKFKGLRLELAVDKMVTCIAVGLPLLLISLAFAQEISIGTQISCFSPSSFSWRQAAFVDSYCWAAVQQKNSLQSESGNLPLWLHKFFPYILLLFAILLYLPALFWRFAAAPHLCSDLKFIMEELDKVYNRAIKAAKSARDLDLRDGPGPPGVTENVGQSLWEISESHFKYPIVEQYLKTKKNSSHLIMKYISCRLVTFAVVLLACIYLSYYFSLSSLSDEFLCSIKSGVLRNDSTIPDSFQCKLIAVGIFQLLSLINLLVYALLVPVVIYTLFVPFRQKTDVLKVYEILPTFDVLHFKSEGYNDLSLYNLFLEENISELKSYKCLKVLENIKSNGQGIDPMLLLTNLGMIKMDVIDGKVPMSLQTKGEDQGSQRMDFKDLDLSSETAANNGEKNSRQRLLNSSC

WRQAAFVDSY [^10Panx1]
interaction with the pore of the channel protein (Panx1 channel): some evidence pointing to an interaction with the pore of the channel protein
effect on Cx46 HC peak currents (Cx46 HC): partially inhibit Cx46 HC peak currents
selectivity for Cx43 or Panx1 channels (Cx43 or Panx1 channels): good selectivity
effect on ATP release from Panx1-overexpressing cells (Panx1 channels [1]): inhibits ATP release
flickering frequency (fast-flickering closures) of Panx1 channel (Panx1 channels [2]; 100 µM ^10Panx1 extracellular): 67 Hz
nominal open probability (NPo) of Panx1 channels (Panx1 channels [2]; 100 μM ^10Panx1 extracellular, N = 11 cells, n = 106 traces): 0.28 ± 0.03
reduction of NPo of Panx1 channels (Panx1 channels [2]; 100 μM ^10Panx1 extracellular): 26.0% and ~ 25%
flickering frequency (fast-flickering closures) of Panx1 channel (Panx1 channels [2]; 200 µM ^10Panx1 extracellular): 84 Hz
nominal open probability (NPo) of Panx1 channels (Panx1 channels [2]; 200 μM ^10Panx1 extracellular, N = 12 cells, n = 116 traces): 0.19 ± 0.01
reduction of NPo of Panx1 channels (Panx1 channels [2]; 200 μM ^10Panx1 extracellular): 49.5%
flickering frequency (fast-flickering closures) of Panx1 channel (Panx1 channels [2]; 500 µM ^10Panx1 extracellular): 146 Hz
nominal open probability (NPo) of Panx1 channels (Panx1 channels [2]; 500 μM ^10Panx1 extracellular, N = 11 cells, n = 76 traces): 0.13 ± 0.02
reduction of NPo of Panx1 channels (Panx1 channels [2]; 500 μM ^10Panx1 extracellular): 66.0%
inhibition of Panx1 channel-opening activity (in words) (Panx1 channels [2]; ^10Panx1 extracellular, 100, 200 and 500 µM): Concentration-Dependently Inhibited
effect on open-state events of Panx1, all-point histograms (Panx1 channels [2]; ^10Panx1 extracellular, 100 and 200 μM, Figure 1C): clearly decreased the frequency of open-state events; also recorded: open-state peaks decreased in height while the closed-state peaks increased
subconductance gating of Panx1 channels (Panx1 channels [2]; ^10Panx1 extracellular, Figure 1): did not induce the subconductance gating of Panx1 channels
nominal open probability (NPo) of Cx43 HCs (Cx43 HCs; 100 μM ^10Panx1 extracellular, N = 12 cells, n = 88 traces): 0.30 ± 0.03
reduction of NPo of Cx43 HCs (Cx43 HCs; 100 μM ^10Panx1 extracellular, significant): 37%
nominal open probability (NPo) of Cx43 HCs (Cx43 HCs; 200 μM ^10Panx1 extracellular, N = 11 cells, n = 97 traces): 0.08 ± 0.01
reduction of NPo of Cx43 HCs (Cx43 HCs; 200 μM ^10Panx1 extracellular): ~ 83% and 83%
nominal open probability (NPo) of Cx43 HCs (Cx43 HCs; 500 μM ^10Panx1 extracellular, N = 8 cells, n = 53 traces): 0.03 ± 0.01
reduction of NPo of Cx43 HCs (Cx43 HCs; 500 μM ^10Panx1 extracellular): 94%
conductance γ of Cx43 HC, subconductance state, transition histogram (Cx43 HCs; [3]): 81 ± 29 pS
unitary conductance γ of Cx43 HC, fully open state, transition histogram (Cx43 HCs; [3]): 202 ± 57 pS
conductance γ of Cx43 HC, subconductance state, transition histogram (Cx43 HCs; [4]): 78 ± 27 pS
unitary conductance γ of Cx43 HC, fully open state, transition histogram (Cx43 HCs; [4]): 216 ± 74 pS
conductance γ of Cx43 HC, all-point histogram (Cx43 HCs; Figure 3C, 100 μM ^10Panx1 extracellular): 201 ± 36 pS
inhibition of Cx43 HC opening activity (in words) (Cx43 HCs; Gap19 intracellular / ^10Panx1 extracellular, 100-500 μM (Gap19 100–200 μM)): Inhibited; also recorded: concentration-dependent and significant inhibition; also recorded: inhibits Cx43 HCs over the 100–500 µM concentration range
effect on Cx43 HC gating (fully open state vs subconductance state) (Cx43 HCs; Gap19 intracellular / ^10Panx1 extracellular, from 100 µM): increasing the frequency of subconductance transitions while decreasing the frequency of transitions to the fully open state; also recorded: reduced the propensity of gating to the main open state but increased the incidence of gating to the HC subconductance state
relative reduction of Cx43 HC function vs Panx1 channel function (selectivity) (Cx43 HCs; ^10Panx1 extracellular, all the concentrations tested (100, 200, 500 μM)): more strongly reduces Cx43 HC function than Panx1 channel function at all the concentrations tested
